Experimental data taken from ChEMBL document CHEMBL5154901, “Development of Predictive Classification Models for Whole Cell Antimycobacterial Activity of Benzothiazinones” (J Med Chem, 2022).
≈ marks a conversion by molar mass, not a printed value.

Tests used:
[1] = Metabolic stability in human liver microsomes at 20 uM assessed as half life measured up to 90 mins by LC-HRMS analysis; type: ADME, Microsome
Mycolicibacterium vaccae = assay: Antimycobacterial activity against Mycobacterium vaccae (JMRC:STI:10670) assessed as reduction in bacterial growth incubated for 42 hrs by serial dilution method; type: functional; conditions: Mycolicibacterium vaccae, JMRC:STI:10670, read-out: MIC
[2] = Cytotoxicity against human HeLa cells assessed as reduction in cell viability incubated for 72 hrs by methylene blue staining based colorimetric assay; type: toxicity
[3] = Metabolic stability in human liver microsomes at 20 uM assessed as intrinsic clearance measured up to 90 mins by LC-HRMS analysis; type: ADME, Microsome; conditions: read-out: CLH

Compound `O=c1nc(N2CCn3cc(-c4ccc(F)cc4)nc3C2)sc2c([N+](=O)[O-])cc(C(F)(F)F)cc12` has a half-life at 20 µM [1] of 54.6 min, an MIC (Mycolicibacterium vaccae) of 0.0049 µM (≈ 0.00241 µg/mL) and a CC50 at 72 h [2] of over 102 µM. The microsomal CLint at 20 µM [3] was 25.7 µL/min/mg.

`O=c1nc(N2CCN(Cc3ccc(OC(F)(F)F)cc3)CC2)sc2c([N+](=O)[O-])cc(C(F)(F)F)cc12` gave a half-life at 20 µM [1] of 43.6 min and a microsomal CLint at 20 µM [3] of 32.1 µL/min/mg.

For `O=c1nc(N2CCN(C(c3ccccc3)C(F)(F)F)CC2)sc2c([N+](=O)[O-])cc(C(F)(F)F)cc12` (stereo not drawn), the half-life at 20 µM [1] was 88.9 min and the microsomal CLint at 20 µM [3] was 22.4 µL/min/mg.

`N#Cc1cccc(CN2CCN(c3nc(=O)c4cc(C(F)(F)F)cc([N+](=O)[O-])c4s3)CC2)c1` showed a half-life at 20 µM [1] of 60.3 min and a microsomal CLint at 20 µM [3] of 23.2 µL/min/mg.

Work on `O=c1nc(N2CCC(OC3CCN(CC(F)(F)F)CC3)CC2)sc2c([N+](=O)[O-])cc(C(F)(F)F)cc12` yielded a half-life at 20 µM [1] of 40.5 min, an MIC (Mycolicibacterium vaccae) of 0.0115 µM (≈ 0.00622 µg/mL) and a CC50 at 72 h [2] of over 93 µM. The microsomal CLint at 20 µM [3] was 34.5 µL/min/mg.

`O=c1nc(N2CC[C@H](c3ccccc3)[C@@H](O)C2)sc2c([N+](=O)[O-])cc(C(F)(F)F)cc12` gave a half-life at 20 µM [1] of 52.5 min, an MIC (Mycolicibacterium vaccae) of 0.0069 µM (≈ 0.00311 µg/mL) and a CC50 at 72 h [2] of 73.1 µM. For the same compound, the microsomal CLint at 20 µM [3] was 26.7 µL/min/mg.

For `O=c1nc(N2CCN(CC(F)(F)c3ccc(F)c(F)c3)CC2)sc2c([N+](=O)[O-])cc(C(F)(F)F)cc12`, the half-life at 20 µM [1] was 45.3 min and the microsomal CLint at 20 µM [3] was 30.9 µL/min/mg.

`O=C(O)Cc1ccccc1Nc1c(Cl)cccc1Cl` [DICLOFENAC] showed a half-life at 20 µM [1] of 6.3 min and a microsomal CLint at 20 µM [3] of 222 µL/min/mg.

With `CN(C(=O)CN1CCN(c2nc(=O)c3cc(C(F)(F)F)cc([N+](=O)[O-])c3s2)CC1)c1ccccc1` the half-life at 20 µM [1] was 88.9 min, the MIC (Mycolicibacterium vaccae) was 0.0061 µM (≈ 0.0031 µg/mL) and the CC50 at 72 h [2] was 70.3 µM. For the same compound, the microsomal CLint at 20 µM [3] was 15.8 µL/min/mg.

`O=c1nc(N2CC[C@@](O)(COc3ccc(F)cc3)[C@H](O)C2)sc2c([N+](=O)[O-])cc(C(F)(F)F)cc12` gave an MIC (Mycolicibacterium vaccae) of 0.0485 µM (≈ 0.025 µg/mL) and a CC50 at 72 h [2] of 18.4 µM.

`CN(CC(F)(F)CO)c1nc(=O)c2cc(C(F)(F)F)cc([N+](=O)[O-])c2s1` showed an MIC (Mycolicibacterium vaccae) of 0.0626 µM (≈ 0.025 µg/mL) and a CC50 at 72 h [2] of 109 µM.

`N#Cc1ccccc1N1CCN(c2nc(=O)c3cc(C(F)(F)F)cc([N+](=O)[O-])c3s2)CC1` gave a half-life at 20 µM [1] of 99 min, an MIC (Mycolicibacterium vaccae) of 0.0087 µM (≈ 0.00401 µg/mL) and a CC50 at 72 h [2] of over 108 µM. It also gave a microsomal CLint at 20 µM [3] of 14.1 µL/min/mg.

`O=C(CN1CCN(c2nc(=O)c3cc(C(F)(F)F)cc([N+](=O)[O-])c3s2)CC1)N1CCCC1` showed an MIC (Mycolicibacterium vaccae) of 0.0658 µM (≈ 0.031 µg/mL) and a CC50 at 72 h [2] of over 106 µM.

With `O=c1nc(N2CCN(CC(F)(F)F)CC2)sc2c([N+](=O)[O-])cc(C(F)(F)F)cc12` the half-life at 20 µM [1] was 103 min, the MIC (Mycolicibacterium vaccae) was 0.007 µM (≈ 0.0031 µg/mL) and the CC50 at 72 h [2] was over 113 µM. The microsomal CLint at 20 µM [3] was 13.5 µL/min/mg.

`COc1cc2c(cc1OC)[C@@H](C[C@@H](O)c1ccccc1)N(c1nc(=O)c3cc(C(F)(F)F)cc([N+](=O)[O-])c3s1)CC2` showed an MIC (Mycolicibacterium vaccae) of 0.0425 µM (≈ 0.025 µg/mL) and a CC50 at 72 h [2] of over 85 µM.

For `O=C(CN1CCN(c2nc(=O)c3cc(C(F)(F)F)cc([N+](=O)[O-])c3s2)CC1)Nc1ccccn1`, the MIC (Mycolicibacterium vaccae) was 0.0506 µM (≈ 0.025 µg/mL) and the CC50 at 72 h [2] was 44.5 µM.

For `CN(CC1(CO)CCCC1)c1nc(=O)c2cc(C(F)(F)F)cc([N+](=O)[O-])c2s1`, the MIC (Mycolicibacterium vaccae) was 0.0599 µM (≈ 0.025 µg/mL) and the CC50 at 72 h [2] was over 120 µM.

`CN1CCC(CCCC2CCN(c3nc(=O)c4cc(C(F)(F)F)cc([N+](=O)[O-])c4s3)CC2)CC1` showed an MIC (Mycolicibacterium vaccae) of 0.124 µM (≈ 0.0618 µg/mL) and a CC50 at 72 h [2] of 20.1 µM.

In the case of `O=c1nc(N2CC[C@](O)(COc3ccc(F)cc3)[C@@H](O)C2)sc2c([N+](=O)[O-])cc(C(F)(F)F)cc12`, the MIC (Mycolicibacterium vaccae) is reported as 0.0243 µM (≈ 0.0125 µg/mL) and the CC50 at 72 h [2] is reported as 34.3 µM.

`COc1ccc2c(c1)CN(c1nc(=O)c3cc(C(F)(F)F)cc([N+](=O)[O-])c3s1)C2` showed an MIC (Mycolicibacterium vaccae) of 0.0591 µM (≈ 0.025 µg/mL) and a CC50 at 72 h [2] of over 118 µM.

`O=C(CN1CCN(c2nc(=O)c3cc(C(F)(F)F)cc([N+](=O)[O-])c3s2)CC1)NCCc1ccccc1` gave an MIC (Mycolicibacterium vaccae) of 0.479 µM (≈ 0.25 µg/mL) and a CC50 at 72 h [2] of 87.8 µM.

In the case of `CCCCN(Cc1ccccc1)c1nc(=O)c2cc(C(F)(F)F)cc([N+](=O)[O-])c2s1`, the MIC (Mycolicibacterium vaccae) is reported as 0.0286 µM (≈ 0.0125 µg/mL) and the CC50 at 72 h [2] is reported as over 114 µM.

In the case of `O=c1nc(N2CCN(CC(F)(F)c3ccccc3)CC2)sc2c([N+](=O)[O-])cc(C(F)(F)F)cc12`, the MIC (Mycolicibacterium vaccae) is reported as 0.016 µM (≈ 0.00801 µg/mL) and the CC50 at 72 h [2] is reported as over 100 µM.
